# Patent US20070004010A1, “Engineered Enzymes and Their Use for Synthesis of Thioglycosides” (THE UNIVERSITY OF BRITISH COLUMBIA, priority 2002, published 2007)
# T1: Cex E127A (Cellulomonas fimi, UniProt P07986, E168A)
# T1 sequence (P07986 42-484 E168A): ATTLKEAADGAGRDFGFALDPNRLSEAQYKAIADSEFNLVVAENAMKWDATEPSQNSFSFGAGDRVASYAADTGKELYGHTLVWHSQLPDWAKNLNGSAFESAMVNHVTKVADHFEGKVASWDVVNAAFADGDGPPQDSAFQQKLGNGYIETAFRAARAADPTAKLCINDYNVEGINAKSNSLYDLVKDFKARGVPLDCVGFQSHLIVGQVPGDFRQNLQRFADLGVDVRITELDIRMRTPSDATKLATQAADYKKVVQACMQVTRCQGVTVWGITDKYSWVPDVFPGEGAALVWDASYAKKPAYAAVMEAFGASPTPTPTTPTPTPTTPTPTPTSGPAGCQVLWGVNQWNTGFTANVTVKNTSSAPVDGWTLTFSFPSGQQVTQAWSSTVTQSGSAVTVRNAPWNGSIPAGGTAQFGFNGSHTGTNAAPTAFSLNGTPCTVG
# Legend:
# Abg E171A [1] = molecular target: T2, Abg E171A (Agrobacterium sp., UniProt P12614, E171A); test: Kinetic analysis of thioglycoligase reaction (DNP release) with Abg E171A; type: biochemical; settings: acceptor; donor 2,4-DNP β-D-glucopyranoside (125 mM); 30° C., 50 mM NaPi, 145 mM NaCl, pH 7.1; calculated from the highest observed rate of DNP release
# Experimental: Kinetic analysis was performed with 2,4-DNP β-D-glucopyranoside (125 mM) as donor and with pNP 4-deoxy-4-thio-β-D-glucopyranoside as acceptor at 30° C. in 50 mM NaPi, 145 mM NaCl, pH 7.1 (FIG. 7). It has been shown previously, that the KM− value of the donor is extremely low (<1 μM), and that no donor substrate inhibition is seen. Enzymatic background hydrolysis of the donor together with acceptor substrate inhibition make it difficult to exactly determine K′M and k′cat, but it can be calculated from the highest observed rate of DNP release, that k′cat is higher than 50 min^−1.
# Cex E127A = molecular target: T1, Cex E127A; test: Functional donors and acceptors for Cex E127A; type: biochemical
# Man2A E429A [2] = test: Competition study for evaluation of relative rates of transfer to S- and O-acceptors (HPLC); type: biochemical, Cellulomonas fimi; settings: 6 vs pNP-Xyl, 5.5 mM each; donor DNP-Man; pH 6.8, RT; integration of HPLC peaks
# Experimental: Arrows indicate the elution of the O-linked disaccharides, 10 is the S-linked disaccharide.
# In order to assess the relative rates of transfer to the oxygen and sulfur nucleophiles in the case of Man 2A E429A we established a competition reaction in which equimolar amounts of pNP-Xyl and its 4-thio analogue 6 were incubated together with DNP-Man as donor and Man2A E429A (FIG. 3). When the concentration of donor was limiting (one third of the concentration of acceptors) we saw exclusive formation of the S-linked disaccharide 10 (a). However, upon addition of further donor to a final concentration twice that of the acceptors the O-linked disaccharides (indicated by arrows) were formed (b).
# pNP-Xyl (5.5 mM), 6 (5.5 mM), DNP-Man (3.75 mM) and Man2A E429A (˜1 mg ml.) were incubated in phosphate buffer (50 mM, pH 6.8) for 3 h at RT. After removal of an aliquot DNP-Man was added to a final concentration of 22 mM. After 5 h at RT another aliquot was taken. The aliquots were diluted 1:3 with acetonitrile and centrifuged before applying to the HPLC. HPLC analysis was performed using a Waters 600E multisolvent delivery system with acetonitrile (A)/water (B) as mobile phase (linear gradient: 80% A→60% A in 15 min, flow: 1 ml min^−1), a Waters 2486 Dual λ Absorbance Detector (detection at 280 nm), a TOSO HAAS Amide 80 column (4.6×250 mm) and Millenium 3.20 software.
# Man2A E429A [3] = test: Control reaction with parent sugars as acceptors, DNP-Man as donor; type: biochemical, Cellulomonas fimi; settings: acceptor for Man2A E429A in the presence of DNP-Man
# Abg E171A [4] = molecular target: T2, Abg E171A; type: biochemical; settings: acceptor with Abg E171A in the presence of DNP-Glc as donor
# [5] = Thioglycoligase function of Cex acid/base mutant; type: biochemical, Cellulomonas fimi; settings: mutation of the catalytic acid/base residue E127
# T2 sequence (P12614 whole entry E171A, looked up): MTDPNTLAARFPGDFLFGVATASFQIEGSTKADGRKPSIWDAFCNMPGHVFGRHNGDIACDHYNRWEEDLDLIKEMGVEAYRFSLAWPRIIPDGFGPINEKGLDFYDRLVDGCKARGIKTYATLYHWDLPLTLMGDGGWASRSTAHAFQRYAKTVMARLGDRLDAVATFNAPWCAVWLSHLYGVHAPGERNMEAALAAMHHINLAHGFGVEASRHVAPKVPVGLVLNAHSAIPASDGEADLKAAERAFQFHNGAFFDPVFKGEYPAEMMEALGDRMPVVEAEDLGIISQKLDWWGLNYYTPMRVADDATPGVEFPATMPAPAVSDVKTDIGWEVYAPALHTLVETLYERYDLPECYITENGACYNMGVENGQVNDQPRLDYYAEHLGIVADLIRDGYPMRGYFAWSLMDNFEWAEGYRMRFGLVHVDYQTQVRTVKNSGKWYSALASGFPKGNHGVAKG
Molecule,formation of disaccharide products (Man2A E429A [3]),formation of disaccharides (Abg E171A [4]),further results
"O=[N+]([O-])c1ccc(O[C@@H]2O[C@H](CO)[C@@H](S)[C@H](O)[C@H]2O)cc1 [compound 3, para-nitrophenyl 4-deoxy-4-thio-β-D-glucopyranoside]",,,k′cat (Abg E171A [1]): higher than 50 min^−1; acceptor function (Cex E127A): Functional acceptors
"O=[N+]([O-])c1ccc(O[C@@H]2OC[C@@H](S)[C@H](O)[C@H]2O)cc1 [compound 6, p-Nitrophenyl 4-deoxy-4-thio-β-D-xylopyranoside]",,,transfer to the thiosugar acceptor faster than transfer to its oxygen analogue (Man2A E429A [2]): at least 100 fold
"O=[N+]([O-])c1ccc(O[C@@H]2O[C@H](CO)[C@@H](O)[C@H](O)[C@H]2O)cc1 [pNP-Glc, para-nitrophenyl β-D-glucopyranoside]",only very slowly,no formation of disaccharides,
"O=[N+]([O-])c1ccc(O[C@@H]2OC[C@@H](O)[C@H](O)[C@H]2O)cc1 [pNP-Xyl, para-nitrophenyl β-D-xylopyranoside]",only very slowly,no formation of disaccharides,
"Cex E127A: endo acting retaining β-glycosidase from Cellulomonas fimi (Cex) mutated at the catalytic acid/base residue E127 (protein, UniProt P07986 42-484, looked up, variant E127A) Exoglucanase/xylanase: ATTLKEAADGAGRDFGFALDPNRLSEAQYKAIADSEFNLVVAENAMKWDATEPSQNSFSFGAGDRVASYAADTGKELYGHTLVWHSQLPDWAKNLNGSAFESAMVNHVTKVADHFEGKVASWDVVNAAFADGDGPPQDSAFQQKLGNGYIETAFRAARAADPTAKLCINDYNVEGINAKSNSLYDLVKDFKARGVPLDCVGFQSHLIVGQVPGDFRQNLQRFADLGVDVRITELDIRMRTPSDATKLATQAADYKKVVQACMQVTRCQGVTVWGITDKYSWVPDVFPGEGAALVWDASYAKKPAYAAVMEAFGASPTPTPTTPTPTPTTPTPTPTSGPAGCQVLWGVNQWNTGFTANVTVKNTSSAPVDGWTLTFSFPSGQQVTQAWSSTVTQSGSAVTVRNAPWNGSIPAGGTAQFGFNGSHTGTNAAPTAFSLNGTPCTVG",,,thioglycoligase function [5]: functional thioglycoligase
